According to patent US12281122B1, “PI3K inhibitors” (Cogent Biosciences, Inc., priority 2023, dated 2025):

Columns and labels:
[1] = system: T47D (PI3Kα-H1047R) cell line; assay: HTRF phospho-AKT(S473) cell assay in T47D cells; format: cell-based, human
How it was run: (§1)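 T47D (PI3Kα-H1047R; RPMI, 10% FBS, insulin) and SKBR3 (wild-type PI3Kα; McCoy's 5A, 10% FBS) cells treated 2 h at 37 °C with 12-point 1:3 dilutions, top 5 μM and 10 μM respectively, ≤0.5% DMSO. SKBR3 stimulated with 70 ng/ml PDGF-BB for the last 15 min; lysate pAKT(S473) by HTRF, IC50 from curves.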

[2] = system: SKBR3 (PI3Kα-Wild Type) cell line; assay: HTRF phospho-AKT(S473) cell assay in SKBR3 cells; format: cell-based, human
How it was run: as §1

[3] = Homo sapiens; T47D (PI3Kα-H1047R) cells, HTRF phospho-AKT(S473), 2 hours compound incubation
[4] = Homo sapiens, SK-BR-3; SKBR3 (PI3Kα-Wild Type) cells, HTRF phospho-AKT(S473), 2 hours compound incubation, PDGF-BB stimulated
[5] = Homo sapiens; HTRF phospho-AKT(S473), T47D (PI3Kα-H1047R) cells, 2 hours compound incubation
[6] = Homo sapiens, SK-BR-3; HTRF phospho-AKT(S473), SKBR3 (PI3Kα-Wild Type) cells, 2 hours compound incubation, PDGF-BB stimulated

| SMILES | IC50 [1, 3] [nM] | IC50 [2, 4] [nM] | IC50 [1, 5] [nM] | IC50 [2, 6] [nM] |
| --- | --- | --- | --- | --- |
| Cc1cc([C@@H](C)Nc2ccc(Cl)nc2C(=O)NS(C)(=O)=O)c2nc(-c3ccc(N4CCC(O)CC4)nc3)n(C)c(=O)c2c1 [Compound 177, (R)-6-chloro-3-((1-(2-(6-(4-hydroxypiperidin-1-yl)pyridin-3-yl)-3,6-dimethyl-4-oxo-3,4-dihydroquinazolin-8-yl)ethyl)amino)-N-(methylsulfonyl) picolinamide] | < 250 | 1000 to 5000 |  |  |
| Cc1cc([C@@H](C)Nc2ccc(Cl)nc2C(=O)NS(C)(=O)=O)c2nc(N3CCN(c4ccc(CC#N)cn4)CC3)n(C)c(=O)c2c1 [Compound 206, (R)-6-chloro-3-((1-(2-(4-(5-(cyanomethyl)pyridin-2-yl)piperazin-1-yl)-3,6-dimethyl-4-oxo-3,4-dihydroquinazolin-8-yl)ethyl)amino)-N-(methylsulfonyl) picolinamide] | < 250 | 1000 to 5000 |  |  |
| Cc1cc([C@@H](C)Nc2ccc(Cl)nc2C(=O)NS(C)(=O)=O)c2nc(N3CCN(c4cc[nH]n4)CC3)n(C)c(=O)c2c1 [Compound 204, (R)-3-((1-(2-(4-(1H-pyrazol-3-yl)piperazin-1-yl)-3,6-dimethyl-4-oxo-3,4-dihydroquinazolin-8-yl)ethyl)amino)-6-chloro-N-(methylsulfonyl) picolinamide] | < 250 | 1000 to 5000 |  |  |
| Cc1cc([C@@H](C)Nc2ccc(Cl)nc2C(=O)NS(C)(=O)=O)c2nc(-c3cnc(-c4ccn(C)n4)c(Cl)c3)n(C)c(=O)c2c1 [Compound 293, (R)-6-chloro-3-((1-(2-(5-chloro-6-(1-methyl-1H-pyrazol-3-yl)pyridin-3-yl)-3,6-dimethyl-4-oxo-3,4-dihydroquinazolin-8-yl)ethyl)amino)-N-(methylsulfonyl) picolinamide] | 250 to 500 | 1000 to 5000 |  |  |
| Cc1cc([C@@H](C)Nc2ccc(Cl)nc2C(=O)NS(C)(=O)=O)c2nc(N3CCC(c4ccn[nH]4)CC3)n(C)c(=O)c2c1 [Compound 165, (R)-3-((1-(2-(4-(1H-pyrazol-5-yl)piperidin-1-yl)-3,6-dimethyl-4-oxo-3,4-dihydroquinazolin-8-yl)ethyl)amino)-6-chloro-N-(methylsulfonyl) picolinamide] | < 250 | 1000 to 5000 |  |  |
| Cc1cc([C@@H](C)Nc2ccc(Cl)nc2C(=O)NS(C)(=O)=O)c2nc(N3[C@@H]4CC[C@H]3C[C@@H](c3cnn(C)c3)C4)n(C)c(=O)c2c1 (racemic) [Compound 381, 6-chloro-3-(((R)-1-(3,6-dimethyl-2-((1RS,3RS,5SR)-3-(1-methyl-1H-pyrazol-4-yl)-8-azabicyclo[3.2.1]octan-8-yl)-4-oxo-3,4-dihydroquinazolin-8-yl)ethyl)amino)-N-(methylsulfonyl) picolinamide] | < 250 | 1000 to 5000 |  |  |
| COC1CCC2(CC1)CCN(c1nc3c([C@@H](C)Nc4ccc(Cl)nc4C(=O)NS(C)(=O)=O)cc(C)cc3c(=O)n1C)CC2 [Compound 282, (R)-6-chloro-3-((1-(2-(9-methoxy-3-azaspiro[5.5]undecan-3-yl)-3,6-dimethyl-4-oxo-3,4-dihydroquinazolin-8-yl)ethyl)amino)-N-(methylsulfonyl) picolinamide] | < 250 | ≥ 5000 |  |  |
| Cc1cc([C@@H](C)Nc2ccc(Cl)nc2C(=O)NS(C)(=O)=O)c2nc(N3Cc4cn(C(F)(F)F)nc4C3)n(C)c(=O)c2c1 [Compound 210, (R)-6-chloro-3-((1-(3,6-dimethyl-4-oxo-2-(2-(trifluoromethyl)-2,6-dihydropyrrolo[3,4-c]pyrazol-5(4H)-yl)-3,4-dihydroquinazolin-8-yl)ethyl)amino)-N-(methylsulfonyl) picolinamide] | < 250 | 1000 to 5000 |  |  |
| Cc1cc([C@@H](C)Nc2ccc(Cl)nc2C(=O)NS(C)(=O)=O)c2nc(N3CCC[C@H](c4cc[nH]n4)C3)n(C)c(=O)c2c1 (relative stereo) [Compound 213, 3-(((R)-1-(2-((R*)-3-(1H-pyrazol-3-yl)piperidin-1-yl)-3,6-dimethyl-4-oxo-3,4-dihydroquinazolin-8-yl)ethyl)amino)-6-chloro-N-(methylsulfonyl) picolinamide] | < 250 | 1000 to 5000 |  |  |
| Cc1cc([C@@H](C)Nc2ccc(Cl)nc2C(=O)NS(C)(=O)=O)c2nc(N3CCC(n4cc(-c5cnc(C)cn5)cn4)CC3)n(C)c(=O)c2c1 [Compound 270, (R)-6-chloro-3-((1-(3,6-dimethyl-2-(4-(4-(5-methylpyrazin-2-yl)-1H-pyrazol-1-yl)piperidin-1-yl)-4-oxo-3,4-dihydroquinazolin-8-yl)ethyl)amino)-N-(methylsulfonyl) picolinamide] | < 250 | ≥ 5000 |  |  |

The remaining lines, values ahead:

| IC50 [1, 3] [nM] | IC50 [2, 4] [nM] | IC50 [1, 5] [nM] | IC50 [2, 6] [nM] | SMILES |
| --- | --- | --- | --- | --- |
|  |  | < 250 | 1000 to 5000 | Cc1cc([C@@H](C)Nc2ccc(Cl)nc2C(=O)NS(C)(=O)=O)c2nc(-c3ccc4c(c3)C(=O)N(C)CC4)n(C)c(=O)c2c1 [Compound 779, (R)-6-chloro-3-((1-(3,6-dimethyl-2-(2-methyl-1-oxo-1,2,3,4-tetrahydroisoquinolin-7-yl)-4-oxo-3,4-dihydroquinazolin-8-yl)ethyl)amino)-N-(methylsulfonyl) picolinamide] |
|  |  | 250 to 500 | 1000 to 5000 | Cc1cc([C@@H](C)Nc2ccc(Cl)nc2C(=O)NS(C)(=O)=O)c2nc(N3CC[C@H](c4cnc(C)c(C#N)c4)C3)n(C)c(=O)c2c1 (relative stereo) [Compound 656, 6-chloro-3-(((R)-1-(2-((R*)-3-(5-cyano-6-methylpyridin-3-yl)pyrrolidin-1-yl)-3,6-dimethyl-4-oxo-3,4-dihydroquinazolin-8-yl)ethyl)amino)-N-(methylsulfonyl) picolinamide] |
|  |  | < 250 | 1000 to 5000 | Cc1cc([C@@H](C)Nc2ccc(Cl)nc2C(=O)NS(C)(=O)=O)c2nc(N3CCC(c4cn(C)nn4)CC3)n(C)c(=O)c2c1 [Compound 480, (R)-6-chloro-3-((1-(3,6-dimethyl-2-(4-(1-methyl-1H-1,2,3-triazol-4-yl)piperidin-1-yl)-4-oxo-3,4-dihydroquinazolin-8-yl)ethyl)amino)-N-(methylsulfonyl) picolinamide] |
| < 250 | ≥ 5000 |  |  | Cc1cc([C@@H](C)Nc2ccc(Cl)nc2C(=O)NS(C)(=O)=O)c2nc(N3CCC[C@H](c4ccc(N)cn4)C3)n(C)c(=O)c2c1 (relative stereo) [Compound 307, 3-(((R)-1-(2-((R*)-3-(5-aminopyridin-2-yl)piperidin-1-yl)-3,6-dimethyl-4-oxo-3,4-dihydroquinazolin-8-yl)ethyl)amino)-6-chloro-N-(methylsulfonyl) picolinamide] |
| < 250 | ≥ 5000 |  |  | Cc1cc([C@@H](C)Nc2ccc(Cl)nc2C(=O)NS(C)(=O)=O)c2nc(N3CCC(c4nn(C)cc4N(C)C)CC3)n(C)c(=O)c2c1 [Compound 308, (R)-6-chloro-3-((1-(2-(4-(4-(dimethylamino)-1-methyl-1H-pyrazol-3-yl)piperidin-1-yl)-3,6-dimethyl-4-oxo-3,4-dihydroquinazolin-8-yl)ethyl)amino)-N-(methylsulfonyl) picolinamide] |
|  |  | 250 to 500 | ≥ 5000 | Cc1cc([C@@H](C)Nc2ccc(Cl)nc2C(=O)NS(C)(=O)=O)c2nc(-c3ccnc(O[C@@H]4CCNCC4(F)F)c3)n(C)c(=O)c2c1 [Compound 808, 6-chloro-3-(((R)-1-(2-(2-(((R)-3,3-difluoropiperidin-4-yl)oxy)pyridin-4-yl)-3,6-dimethyl-4-oxo-3,4-dihydroquinazolin-8-yl)ethyl)amino)-N-(methylsulfonyl) picolinamide] |
| 250 to 500 | 1000 to 5000 |  |  | Cc1cc([C@@H](C)Nc2ccc(Cl)nc2C(=O)NS(C)(=O)=O)c2nc(N3CCO[C@H](c4cnn(C)c4)C3)n(C)c(=O)c2c1 (relative stereo) [Compound 313, 6-chloro-3-(((R)-1-(3,6-dimethyl-2-((R*)-2-(1-methyl-1H-pyrazol-4-yl)morpholino)-4-oxo-3,4-dihydroquinazolin-8-yl)ethyl)amino)-N-(methylsulfonyl) picolinamide] |
|  |  | 250 to 500 | ≥ 5000 | Cc1cc([C@@H](C)Nc2ccc(Cl)nc2C(=O)NS(C)(=O)=O)c2nc(N3C[C@H]4C[C@@H]3CN4c3ncc(C#N)cc3F)n(C)c(=O)c2c1 [Compound 767, 6-chloro-3-(((R)-1-(2-((1R,4R)-5-(5-cyano-3-fluoropyridin-2-yl)-2,5-diazabicyclo [2.2.1]heptan-2-yl)-3,6-dimethyl-4-oxo-3,4-dihydroquinazolin-8-yl)ethyl)amino)-N-(methylsulfonyl) picolinamide] |
| 250 to 500 | ≥ 5000 |  |  | Cc1cc([C@@H](C)Nc2ccc(Cl)nc2C(=O)NS(C)(=O)=O)c2nc(N3C[C@@H]4[C@H](C3)[C@H]4c3nn(C)cc3Cl)n(C)c(=O)c2c1 [Compound 401, 6-chloro-3-(((R)-1-(2-((1R,5S,6R)-6-(4-chloro-1-methyl-1H-pyrazol-3-yl)-3-azabicyclo[3.1.0]hexan-3-yl)-3,6-dimethyl-4-oxo-3,4-dihydroquinazolin-8-yl)ethyl)amino)-N-(methylsulfonyl) picolinamide] |
|  |  | 250 to 500 | ≥ 5000 | Cc1cc([C@@H](C)Nc2ccc(Cl)nc2C(=O)NS(C)(=O)=O)c2nc(N3C[C@@H]4[C@H](C3)[C@H]4c3n[nH]cc3Cl)n(C)c(=O)c2c1 [Compound 593, 6-chloro-3-(((R)-1-(2-((1R,5S,6R)-6-(4-chloro-1H-pyrazol-3-yl)-3-azabicyclo[3.1.0]hexan-3-yl)-3,6-dimethyl-4-oxo-3,4-dihydroquinazolin-8-yl)ethyl)amino)-N-(methylsulfonyl) picolinamide] |
